Assay results as given in patent publication US20180235900A1, “SUBCUTANEOUS RESERVOIR DEVICE AND METHOD OF MANUFACTURE” (Research Triangle Institute, priority 2017, published 2018).
Where a name gives a salt, the structure may show the parent alone.

Test: TAF stability in excipients (chromatographic purity by HPLC)
Type: physicochemical
Conditions: excess TAF dissolved in excipient at 37° C., quantified by HPLC
Method: Excipients on the FDA GRAS list of acceptable compounds were evaluated for TAF stability and short-duration TAF release. Devices containing TAF in combination with selected GRAS excipients were evaluated in prototype devices 60 days, presented in FIG. 8. […] Tocopherol was not chosen because of the high release rate of TAF near 3.5 mg/day.

Question: For `CC(C)OC(=O)[C@H](C)N[P@](=O)(CO[C@H](C)Cn1cnc2c(N)ncnc21)Oc1ccccc1` [TAF std., Tenofovir Alafenamide Fumarate], which “Chromatographic Purity” value is on record?
Answer: 99.88%
